{
  "source": "patent US7632679B2",
  "about": "“Systems and methods for screening for modulators of neural differentiation” (The Trustees of Columbia University in the City of New York, priority 2002, dated 2009)",
  "key": {"[1]": {"system": "ES-cell-derived embryoid bodies", "experiment": "HB9+ motor neuron generation in embryoid bodies", "assay_type": "cell-based, mouse", "protocol": "(§1) For some experiments, ES cells were grown on a monolayer of stromal PA6 cell line (Riken Cell Bank, Japan), in DFK5 medium alone, or supplemented with 2 μM RA, as described (Kawasaki et al., Induction of midbrain dopaminergic neurons from ES cells by stromal cell-derived inducing activity. Neuron, 28:31-40, 2000).\nTo begin to examine the capacity of mouse ES cells to generate motor neurons, the inventors grew mouse ES cells in aggregate culture for 2 days, a procedure that results in the formation of embryoid bodies (EBs) (Bain et al., Embryonic stem cells express neuronal properties in vitro. Dev. Biol., 168:342-57, 1995)."}, "HBG3 ES cells": {"system": "HBG3 ES cells", "experiment": "eGFP+ motor neuron generation in HBG3 ES-cell-derived embryoid bodies", "assay_type": "cell-based, mouse", "protocol": "as §1\nA transgenic mouse line was established by pronucleus injection of a construct that used a ˜9 kB fragment comprising the 5′ upstream region of the murine HB9 gene (Arber et al., Requirement for the homeobox gene Hb9 in the consolidation of motor neuron identity. Neuron, 23:659-764, 1999), followed by a 5′ splice substrate (Choi et al., A generic intron increases gene expression in transgenic mice. Mol. Cell Biol., 11:3070-74, 1991), an eGFP gene, and a bovine growth hormone polyadenylation signal. The ˜9 kB Not1 fragment of HB9 is sufficient to direct eGFP expression to develop motor neurons in transgenic embryos examined from E9.5 to P10. In one transgenic line (mHB9-Gfp1b), the pattern of eGFP expression corresponded closely to the profile of expression of endogenous HB9. ES-cell lines were derived from mHB9-Gfp1b heterozygous blastocysts, as previously described (Abbondanzo et al., Derivation of embryonic stem cell lines. Methods Enzymol., 225:803-23, 1993). One selected line (HBG3) was tested for its capacity to integrate into developing mouse blastocysts and its capacity for germline transmission.\nHBG3 ES-cell embryoid bodies were dissociated using a papain dissociation system (Worthington Biochemical Corp.). Cells expressing high levels of eGFP were sorted from the cell suspension with a Beckman-Coulter Altra flow cytometer, based on their eGFP fluorescence and forward light scatter using the gate indicated in the plot. Typically, 20-30% of input cells expressed high levels of GFP. The analysis established that this eGFP-Hi cell group constituted a >95% pure population of motor neurons. The yield of a typical FACS sort is 3000-5000 GFP-Hi cells per EB."}, "[2]": {"system": "neural progenitor cells in embryoid bodies", "experiment": "Progenitor transcription factor expression (ventralization) in RA-exposed embryoid bodies", "assay_type": "cell-based, mouse"}, "[3]": {"system": "ES cells / embryoid bodies", "experiment": "Suppression and induction of a neural character in differentiating embryoid bodies", "assay_type": "cell-based, mouse", "details": "for acquisition of neural precursor cell fate (Sox1): 4 days of differentiation, factor present for entire culture (Wnt3a conditioned medium 1×, BMP4 10 ng/ml, SU5402 5 μM); for neural precursor or post-mitotic neural cells: EBs differentiated 4 days with RA+Wnt3a or RA+BMP4", "protocol": "(§2) Medium was replaced every 2 days. Medium was supplemented by factors, at the start of ES-cell aggregation/differentiation (day 0) or on day 2, as indicated below, and cultured for a further 2-8 days.\n(§3) Soluble Wnt3a and control-conditioned medium (Wilson et al., The status of Wnt signaling regulates neural and epidermal fates in the chick embryo. Nature, 411:325-30, 2001) were prepared, as previously described (Shibamoto et al., Cytoskeletal reorganization by soluble Wnt-3a protein signalling. Genes Cells, 3:659-70, 1998). Soluble Frizzled 8 (mFrz8CRD-IgG) and control-conditioned medium were prepared by transfecting HEK-293 cells with mfz8CRD-IgG (Hsieh et al., Biochemical characterization of Wnt-frizzled interactions using a soluble, biologically active vertebrate Wnt protein. Proc. Natl. Acad. Sci. USA, 96:3546-51, 1999) or LacZ reporter construct (Wilson et al., An early requirement for FGF signalling in the acquisition of neural cell fate in the chick embryo. Curr. Biol., 10:421-29, 2000). The transfected HEK-293 cells were then incubated for 48 h in OPTI-MEM medium. mFrzCRD-1gG conditioned medium was used undiluted.\nImmunohistochemical localization of proteins was performed, as previously described (Yamada et al., Control of cell pattern in the developing nervous system: polarizing activity of the floor plate and notochord. Cell, 64:635-47, 1991). Neural precursor (neural progenitor) cells were delineated by expression of rabbit anti-Sox1. Post-mitotic neurons were delineated using mouse anti-Pax6. Otx1/Otx2 and Eng1, which are co-expressed at the midbrain/hindbrain boundary, were used to define cells of a midbrain-like character (Davis and Joyner, Expression patterns of the homeo box-containing genes En-1 and En-2 and the proto-oncogene int-1 diverge during mouse development. Genes Dev., 2:1736-44, 1988). Hox C6 and HoxC8 were used to delineate cells of a spinal-cord character. Krox20 (Covance) is expressed in hindbrain cells, in regions fated to give rise to rhombomeres 3 and 5; thus, co-expression of Sox1 and Otx1/Otx2, in the absence of Eng1 or Krox 20, was used to delineate an anterior/prosencephalic character (Lemaire and Kessel, Gastrulation and homeobox genes in chick embryos. Mech. Dev., 67:3-16, 1997).\nIn control experiments, 15-30% of cells attained a neural-cell fate when subjected to aggregation in differentiation medium. To suppress a neural-cell fate, medium was supplemented by Wnt3a conditioned medium (1×), BMP4 (10 ng/ml), or SU5402 (5 μM), at the start of ES-cell aggregation (day 0). To induce a neural-cell fate, medium was supplemented by mFRZ8CRD conditioned medium (2×) at the start of ES-cell aggregation (day 0). ES cells were differentiated for 4-8 days."}, "[4]": {"system": "ES-cell-derived neural precursor cells", "experiment": "Caudalization of a neural character by Wnt3a", "assay_type": "cell-based, mouse", "details": "Wnt3a at different concentrations and/or times; 2 days differentiation medium, then 2 days with Wnt3a", "protocol": "as §2, §3\nImmunohistochemical localization of proteins was performed, as previously described (Yamada et al., Control of cell pattern in the developing nervous system: polarizing activity of the floor plate and notochord. Cell, 64:635-47, 1991). […]"}, "mouse ES cells": {"system": "mouse ES cells", "experiment": "Directed differentiation of ES cells into LH2-positive dorsal spinal neurons", "assay_type": "cell-based", "details": "embryoid bodies grown in the presence of BMP7", "protocol": "Embryonic stem (ES) cells were grown on mouse embryonic fibroblasts in ES-cell medium, as described in Example 1. ES-cell colonies were partially dissociated with 0.05% trypsin/EDTA, after 2 days, and cultured in DFNB medium (neurobasal medium (Gibco) mixed with DMEM (Specialty Media, EmbryoMax) and F12 (Gibco), in a 2:1:1 ratio, supplemented with 1×B27 supplement, 0.1 mM 2-mercaptoethanol (Sigma), 2 mM L-glutamine (Gibco), and 1× penicillin/streptomycin (Gibco)) (˜10^5 cells/ml).\nAfter 2 days in culture, embryoid bodies (EBs) were plated in DFNB medium supplemented with retinoic acid (100 nM to 1 μM) (Sigma). After 1-2 days in culture, in the presence of retinoic acid, EBs were collected, rinsed 2-3 times with PBS, and plated in DFNB medium supplemented with human BMP4 (10 ng/ml; R&D systems) or BMP7 (20 ng/ml). After an additional 4 days in culture, cells were fixed using 4% paraformaldehyde, and processed for immunocytochemistry."}, "[5]": {"details": "RA-treated EBs, 10 nM Hh-Ag1.3, 3 days"}},
  "note": "“Also recorded” adds a separate entry of the source.",
  "data": [
    {"molecule": "CNC1CCC(N(Cc2cccc(-c3ccncc3)c2)C(=O)c2sc3ccccc3c2Cl)CC1", "note": "(centres unmarked) [Hh-Ag1.3]", "values": [
      {"measurement": "HB9+ neurons in EBs", "setting": "[1]; Hh-Ag1.3 (1 μM) for 5 days without RA", "value": "No HB9^+ neurons were generated; also recorded: did not contain HB9^+ neurons"},
      {"measurement": "HB9+ neurons per section", "setting": "[1]; RA-treated EBs plus SHh (300 nM) or Hh-Ag1.3 (1 μM)", "value": "509±57", "unit": "HB9^+ neurons/section"},
      {"measurement": "HB9+ neurons per EB", "setting": "[1]; RA-treated EBs plus SHh (300 nM) or Hh-Ag1.3 (1 μM), ~10-15 sections per EB", "value": 5000, "unit": "HB9^+ neurons"},
      {"measurement": "toxicity for cells differentiating in EBs", "setting": "HBG3 ES cells; 10 μM Hh-Ag1.3", "value": "became toxic for cells differentiating in EBs"},
      {"measurement": "generation of eGFP+/HB9+ motor neurons", "setting": "HBG3 ES cells; Hh-Ag1.3 (1 μM) in the absence of RA", "value": "failed to generate eGFP^+/HB9^+ motor neurons"},
      {"measurement": "eGFP+/HB9+ motor neurons as share of total cells in EBs", "setting": "HBG3 ES cells; RA and 1 μM Hh-Ag1.3", "value": "20-30%"},
      {"measurement": "cells in EBs expressing eGFP", "setting": "HBG3 ES cells; RA plus 2.2 μM Hh-Ag1.3, 5 days", "value": 22.5, "unit": "%"},
      {"measurement": "number of eGFP+/HB9+ motor neurons", "setting": "HBG3 ES cells; RA-exposed HBG3 EBs plus Hh-Ag1.3, concentration-dependent (0 to 2.2 μM)", "value": "increased"},
      {"measurement": "BrdU incorporation by Olig2+ cells", "setting": "[2]; Hh-Ag1.3-exposed EBs, 3 days with RA", "value": "incorporated BrdU"},
      {"measurement": "Nkx6.1+ and Olig2+ cells", "setting": "[2]; [5]", "value": "a few Nkx6.1^+ and Olig2^+ cells were detected"},
      {"measurement": "Pax7 expression", "setting": "[2]; [5]", "value": "completely repressed"},
      {"measurement": "number of Dbx1+ cells", "setting": "[2]; [5]", "value": "reduced"},
      {"measurement": "number of Pax6+ and Irx3+ cells", "setting": "[2]; [5]", "value": "increased"},
      {"measurement": "Dbx1 expression", "setting": "[2]; RA-treated EBs, 1 μM Hh-Ag1.3", "value": "virtually eliminated"},
      {"measurement": "HNF3β+ floor plate cells", "setting": "[2]; RA-treated EBs, 1 μM Hh-Ag1.3", "value": "no HNF3β^+ floor plate cells were detected"},
      {"measurement": "Nkx2.2+ cells", "setting": "[2]; RA-treated EBs, 1 μM Hh-Ag1.3", "value": "a few Nkx2.2^+ cells were also induced"},
      {"measurement": "number of Irx3+ and Pax6+ cells", "setting": "[2]; RA-treated EBs, 1 μM Hh-Ag1.3", "value": "markedly reduced"},
      {"measurement": "number of Nkx6+ and Olig2+ cells", "setting": "[2]; RA-treated EBs, 1 μM Hh-Ag1.3", "value": "large increase"}
    ]},
    {"molecule": "Cc1c[nH]c(/C=C2\\C(=O)Nc3ccccc32)c1CCC(=O)O", "note": "[SU5402]", "values": [
      {"measurement": "acquisition of neural precursor cell fate (Sox1)", "setting": "[3]", "value": "could not acquire a neural precursor cell fate"}
    ]},
    {"molecule": "Wnt3a", "values": [
      {"measurement": "acquisition of neural precursor cell fate (Sox1)", "setting": "[3]", "value": "could not acquire a neural precursor cell fate"},
      {"measurement": "neural precursor or post-mitotic neural cells", "setting": "[3]", "value": "no neural precursor or post-mitotic neural cells were present"},
      {"measurement": "caudalization of neural cells", "setting": "[4]", "value": "progressively caudalized to hindbrain and spinal cord character"}
    ]},
    {"molecule": "CC1=C(/C=C/C(C)=C/C=C/C(C)=C/C(=O)O)C(C)(C)CCC1", "note": "[RA, retinoic acid]", "values": [
      {"measurement": "HB9+ neurons per section", "setting": "[1]; RA-exposed EBs grown alone for 5 days", "value": "7±2", "unit": "HB9^+ neurons/section"}
    ]},
    {"molecule": "BMP7: bone morphogenetic protein 7 (protein, UniProt P18075 293-431, looked up) Bone morphogenetic protein 7: STGSKQRSQNRSKTPKNQEALRMANVAENSSSDQRQACKKHELYVSFRDLGWQDWIIAPEGYAAYYCEGECAFPLNSYMNATNHAIVQTLVHFINPETVPKPCCAPTQLNAISVLYFDDSSNVILKKYRNMVVRACGCH", "values": [
      {"measurement": "dorsal spinal neurons (LH2) and their progenitors (Math1)", "setting": "mouse ES cells", "value": "numerous dorsal neurons and their progenitors were observed"}
    ]},
    {"molecule": "BMP4: human BMP4 protein (bone morphogenetic protein), R&D systems (protein, UniProt P12644 293-408, looked up) Bone morphogenetic protein 4: SPKHHSQRARKKNKNCRRHSLYVDFSDVGWNDWIVAPPGYQAFYCHGDCPFPLADHLNSTNHAIVQTLVNSVNSSIPKACCVPTELSAISMLYLDEYDKVVLKNYQEMVVEGCGCR", "values": [
      {"measurement": "acquisition of neural precursor cell fate (Sox1)", "setting": "[3]", "value": "could not acquire a neural precursor cell fate"},
      {"measurement": "neural precursor or post-mitotic neural cells", "setting": "[3]", "value": "no neural precursor or post-mitotic neural cells were present"}
    ]}
  ]
}
